Laboratory results: US20140288025A1, “FATTY ACID ANTIVIRAL CONJUGATES AND THEIR USES” (Catabasis Pharmaceuticals, Inc., priority 2013, published 2014)
Read-outs that look alike come from different tables or passages of the source.

Tests used:
Assay type in all cases: cell-based
HIV-1IIIB strain = experiment: HIV-1 cytoprotection assay (CEM-SS cells, MTS dye reduction); conditions: for IC50 HIV-1IIIB strain (nM): CEM-SS cells, 6 days, MTS
Method: Cytoprotection assays are commonly used for evaluating the antiviral efficacy of test compounds against a variety of viruses in different cell lines. […] Briefly, virus and cells are mixed in the presence of test compound and incubated for 6 days. […] Each assay plate contains cell control wells (cells only), virus control wells (cells plus virus), compound toxicity control wells (cells plus compound only), compound colorimetric control wells (compound only), as well as experimental wells (compound plus cells plus virus). Cytoprotection and compound cytotoxicity are assessed by MTS (CellTiter®96 Reagent, Promega, Madison Wis.) dye reduction. […] Each assay includes the HIV reverse transcriptase inhibitor AZT as a positive control.
CEM-SS cells were obtained from the NIH AIDS Research and Reference Reagent Program and are routinely passaged in T-75 flasks using standard tissue culture techniques based on the specifications provided by the supplier. On the day preceding the assay, the cells are split 1:2 to assure they are in an exponential growth phase at the time of infection. Total cell number and percent viability determinations are performed using a hemacytometer and trypan blue exclusion. […] The cells are re-suspended at 5×10^4 cells/mL in tissue culture medium and added to the drug-containing 96-well microtiter plates in a volume of 50 μl.
The viruses used for this assay are CXCR4-tropic laboratory virus strains. The most commonly used strains are HIV-1RF and HIV-1IIIB (each obtained from the NIH AIDS Research and Reference Reagent Program). For each assay, a pre-titered aliquot of virus is removed from the freezer (−80° C.) and allowed to thaw slowly to room temperature in a biological safety cabinet. The virus is re-suspended and diluted into tissue culture medium such that the amount of virus added to each well in a volume of 50 μl is the amount determined to give between 85 to 95% cell killing at 6 days post-infection.
Each plate contains cell control wells (cells only), virus control wells (cells plus virus), drug cytotoxicity wells (cells plus drug only), drug colorimetric control wells (drug only), background control wells (media only), as well as experimental wells (drug plus cells plus virus). Samples are evaluated for antiviral efficacy with triplicate measurements using 6 concentrations at half-log dilutions (12 concentrations can also be performed) in order to determine IC50 values and with duplicate measurements to determine cellular cytotoxicity, if detectable.
100% EtOH is added to the compounds of the invention such that the EtOH stock concentration is 50 mM. […] (VWR Ultrasonics Cleaner, Model #B8500A-DTH with “Sonics Power” set to HI); e) The 1:2 serial dilutions of the 1 mM 10× stock solution with FBS/2% EtOH are prepared such that the concentrations of the 10× stock solutions are 1 mM, 0.5 mM, 0.25 mM, etc., in FBS with 2% EtOH. Medium is aspirated off cells and replaced with serum free medium.

NF-κB = NF-κB luciferase reporter assay in RAW 264.7 macrophages; conditions: for IC50: Mus musculus
Method: RAW 264.7 cells stably expressing a 3×NFkB response element-drive luciferase reporter were seeded into 96 well plates in sera-free medium (Optimem) 18 hours prior to compound application. Compounds of the invention were prepared by first making 100 mM stock solutions in EtOH. […] Cells were then stimulated with 200 ng/ml LPS or vehicle control for 3 hours in the presence of the compounds of the invention. A set of six vehicles was left unstimulated with LPS in order to measure the assay floor. AlamarBlue viability dye (Invitrogen) was added to cells simultaneously with the delivery of LPS (final AlamarBlue concentration of 10%). After the 3 h incubation period with LPS, cell viability was measured by reading fluorescence (excitation 550 nm, emission 595 nm) with a Perkin Elmer Victor V plate reader. Then cell media was aspirated from each well. Luciferase signal was then developed by addition of the Britelite Plus reagent (Perkin Elmer). Luciferase activity was measured with the Perkin Elmer Victor V plate reader. NE-κB activity was expressed as a percent of the vehicle control wells (stimulated with LPS). Compounds were tested at 6 dose point titrations in triplicate to determine IC50 values.

HBV = HBV assay, extracellular HBV DNA in HepG2 2.2.15 cells; conditions: Hepatitis B virus, read-out: EC90 against HBV
Method: Extracellular HBV DNA analysis was carried out using the protocols outlined in Innaimo et al, Antimicrobial Agents and Chemotherapy 1997, 41, p. 1444-1448 and Korba and Milman Antiviral Research 1991, 15, p. 217-228. HepG2 2.2.15 cells were maintained in RPMI 1640 supplemented with 2 mM L-glutamine, 50 U of penicillin per mL, 50 μg of streptomycin per mL, 500 μg of G418 per mL, and 5% fetal bovine serum. Stock solutions of the test compounds were prepared according to the procedures outlined in example 3. HepG2 2.2.15 cells were plated at a density of 5×10^5 cells per well on 12-well Biocoat collagen-coated plates (Collaborative Biosciences, Beford, Mass.) and were maintained in a confluent state for 2 to 3 days before being overlaid with 1 mL of medium spiked with the antiviral compound. Compound-containing medium was changed daily for 9 days. On day 10, the media were collected and clarified by pelleting the cellular debris with a 5-min microcentrifuge spin at 16,000×g. Supernatants were processed for HBV DNA by the alkaline lysis method. Released HBV DNA was immobilized on a Magnagraph nylon membrane (Micron Separatations, Inc., Westborough, Mass.) by sing a dot blot manifold full-length HBV genome template excised from plasmid pTHBV-1 (American Type Culture Collection, Rockville, Md.) and ^32P-radiolabeled to a specific activity of 2×10^9 cpm/μg by using a random primer kit (Life Technologies, Grand Island, N.Y.). Quantification was performed on a Storm 860 phosphorimager (Molecular Dynamics, Sunnyvale, Calif.). All drug concentrations were tested in duplicate or triplicate, with antiviral effects being scored as reductions in the amount of HBV DNA present in the medium relative to that in untreated controls after the 10-day treatment period. Using the assay, the following EC90 values against HBV were obtained: […]

[1] = system: HCV Con 1 subgenomic replicon; experiment: HCV replicon assay (Huh-7 GS4.1 cells, NS4A ELISA); conditions: Hepatitis C virus, Huh-7 GS4.1 replicon cells, 72 hours
Method: The HCV replicon assay was carried out in the same manner described in WO 2010/018140, WO 2011/123586, Okuse et al Antivir. Res. 2005, 65, p. 23, Blight et al Science 2000, 290, p. 1972, Korba and Gerin Antivir. Res. 1992, 19, p. 55). Huh-7 cells containing HCV Con 1 subgenomic replicon (GS4.1 cells) were grown in Dulbecco's Modified Eagle Medium (DMEM) supplemented with 10% fetal bovine serum (FBS), 2 mM L-glutamine, 110 mg/L sodium pyruvate, 1× non-essential amino acids, 100 U/mL penicillin-streptomycin and 0.5 mg/mL G418 (Invitrogen). For dose-response testing, the cells were seeded in 96-well plates at 7.5×10^3 cells/well in a volume of […] and incubated at 37° C./5% CO2. […] The cells were incubated in the presence of compounds for 72 hours after which they are monitored for expression of the NS4A protein by enzyme-linked immunosorbent assay (ELISA). […] The reaction was stopped after 30 minutes with 2 N H2SO4 and the absorbance was read at 492 nm using a Sunrise Tecan spectrophotometer. EC50 values were determined from the % inhibition vs concentration data using a sigmoidal non-linear regression analysis based on four parameters with Tecan Magellan software. For cytotoxicity evaluation, GS4.1 cells are treated with compounds as described and cellular viability can be monitored using a Cell Titer 96 AQueous One Solution Cell Proliferation Assay (Promega). […]

[2] = RAW264.7, 3 h, read-out: NF-kB inhibitory activity IC50 μM

SMILES	IC50 (NF-κB; [2])	EC90 (HBV; HepG2 2.2.15, 240 h)	also measured
CC/C=C\C/C=C\C/C=C\C/C=C\C/C=C\C/C=C\CCC(=O)Nc1ccn([C@@H]2CS[C@H](CO)O2)c(=O)n1 [Example V-18, (4Z,7Z,10Z,13Z,16Z,19Z)—N-(1-((2R,5S)-2-(hydroxymethyl)-1,3-oxathiolan-5-yl)-2-oxo-1,2-dihydropyrimidin-4-yl)docosa-4,7,10,13,16,19-hexaenamide]			IC50 HIV-1IIIB strain (nM) (HIV-1IIIB strain): + ++; IC50 (NF-κB; RAW264.7, RAW 264.7 reporter cells, 200 ng/ml LPS, 3 hours, read-out: NF-kB inhibitory activity IC50): > 200 µM; EC90 (HBV; 240 h, HepG2 2.2.15 cells, extracellular HBV DNA, 10-day treatment): 81 nM
CC/C=C\C/C=C\C/C=C\C/C=C\C/C=C\CCCC(=O)NCCNP(=O)(OC[C@@H]1OC(n2ccc(N)nc2=O)CS1)Oc1ccccc1 (stereo partly drawn) [II-68]	50 to 200 µM	82 nM	
CC/C=C\C/C=C\C/C=C\C/C=C\C/C=C\C/C=C\CCC(=O)NCCNC(=O)OC[C@@H]1O[C@H](n2ccc(N)nc2=O)CS1 [Example V-21, ((2R,5S)-5-(4-amino-2-oxopyrimidin-1(2H)-yl)-1,3-oxathiolan-2-yl)methyl (2-((4Z,7Z,10Z,13Z,16Z,19Z)-docosa-4,7,10,13,16,19-hexaenamido)ethyl)carbamate]	50 to 200 µM	79 nM	IC50 HIV-1IIIB strain (nM) (HIV-1IIIB strain): + ++
C=C1[C@H](COP(=O)(NCCNC(=O)CCC/C=C\C/C=C\C/C=C\C/C=C\C/C=C\CC)OC)[C@@H](O)C[C@@H]1n1cnc2c(=O)nc(N)[nH]c21 (stereo partly drawn) [II-48, ((1R,3S,5S)-3-(2-amino-6-oxo-3H-purin-9(6H)-yl)-5-hydroxy-2-methylenecyclopentyl)methyl methyl (2-((5Z,8Z,11Z,14Z,17Z)-icosa-5,8,11,14,17-pentaenamido)ethyl)phosphoramidate]	50 to 200 µM	7 nM	
CC/C=C\C/C=C\C/C=C\C/C=C\C/C=C\C/C=C\CCC(=O)NCCNP(=O)(OC[C@@H]1O[C@H](n2ccc(N)nc2=O)CS1)Oc1ccccc1 (stereo partly drawn) [II-67, ((2R,5S)-5-(4-amino-2-oxopyrimidin-1(2H)-yl)-1,3-oxathiolan-2-yl)methyl phenyl (2-((4Z,7Z,10Z,13Z,16Z,19Z)-docosa-4,7,10,13,16,19-hexaenamido)ethyl)phosphoramidate]		75 nM	IC50 (HIV-1IIIB strain; Human immunodeficiency virus 1, IIIB, CEM-SS, 144 h, read-out: IC50 HIV-1IIIB strain (nM)): < 100 nM; NF-kB inhibitory activity IC50 μM (NF-κB; RAW 264.7 reporter cells, 200 ng/ml LPS, 3 hours): + +
CC/C=C\C/C=C\C/C=C\C/C=C\C/C=C\C/C=C\CCC(=O)NCCNP(=O)(OC[C@H]1O[C@@H](n2ccc(=O)[nH]c2=O)[C@](C)(F)[C@@H]1O)Oc1ccccc1 (stereo partly drawn) [II-1, ((2R,3R,4R,5R)-5-(2,4-dioxo-3,4-dihydropyrimidin-1(2H)-yl)-4-fluoro-3-hydroxy-4-methyltetrahydrofuran-2-yl)methyl phenyl (2-((4Z,7Z,10Z,13Z,16Z,19Z)-docosa-4,7,10,13,16,19-hexaenamido)ethyl) phosphoramidate]			EC50 [1]: 780 nM
C=C1[C@H](COP(=O)(NCCNC(=O)CC/C=C\C/C=C\C/C=C\C/C=C\C/C=C\C/C=C\CC)OC)[C@@H](O)C[C@@H]1n1cnc2c(=O)nc(N)[nH]c21 (stereo partly drawn) [II-46, ((1R,3S,5S)-3-(2-amino-6-oxo-3H-purin-9(6H)-yl)-5-hydroxy-2-methylenecyclopentyl)methyl methyl (2-((4Z,7Z,10Z,13Z,16Z,19Z)-docosa-4,7,10,13,16,19-hexaenamido)ethyl)phosphoramidate]		7 nM	
